{"source": "ChEMBL document CHEMBL1126819", "about": "“Amino acid bioisosteres: design of 2-quinolone derivatives as glycine-site N-methyl-D-aspartate receptor antagonists” (Bioorg Med Chem Lett, 1993)", "key": {"Rattus norvegicus": {"organism": "Rattus norvegicus", "assay": "Tested for ability to inhibit NMDA-induced depolarizations in rat cortical slices", "format": "functional"}, "Glutamate NMDA receptor": {"target": "Glutamate NMDA receptor", "format": "cell membranes, Rattus norvegicus, Membrane", "description": "Displacement of [3H]L-689,560 from NMDA receptor glycine site of rat brain membranes"}, "[1]": {"assay": "Dissociation constant pKa was determined", "format": "physicochemical"}}, "data": [{"smiles": "O=[N+]([O-])c1cc([N+](=O)[O-])c2nc(O)c(O)nc2c1", "values": [{"measurement": "Kb", "setting": "Rattus norvegicus", "result": 1200, "unit": "nM"}, {"measurement": "IC50", "setting": "Glutamate NMDA receptor", "result": 170, "unit": "nM"}, {"measurement": "pKa", "setting": "[1]", "result": 6.5}]}, {"smiles": "O=C(O)c1cc(O)c2c(Cl)cc(Cl)cc2n1", "values": [{"measurement": "Kb", "setting": "Rattus norvegicus", "result": 1900, "unit": "nM"}, {"measurement": "IC50", "setting": "Glutamate NMDA receptor", "result": 64, "unit": "nM"}]}, {"smiles": "O=C(Nc1ccccc1)N[C@H]1C[C@H](C(=O)O)Nc2cc(Cl)cc(Cl)c21", "values": [{"measurement": "Kb", "setting": "Rattus norvegicus", "result": 110, "unit": "nM"}, {"measurement": "IC50", "setting": "Glutamate NMDA receptor", "result": 4, "unit": "nM"}, {"measurement": "pKa", "setting": "[1]", "result": "~4"}]}, {"smiles": "C[C@@H]1CN(O)C(=O)[C@@H]1N", "values": [{"measurement": "IC50", "setting": "Glutamate NMDA receptor", "result": 2700, "unit": "nM"}]}, {"smiles": "O=c1[nH]c2cc(Cl)ccc2c(O)c1-c1ccccc1", "values": [{"measurement": "Kb", "setting": "Rattus norvegicus", "result": 880, "unit": "nM"}, {"measurement": "IC50", "setting": "Glutamate NMDA receptor", "result": 170, "unit": "nM"}, {"measurement": "pKa", "setting": "[1]", "result": 5.4}]}, {"smiles": "O=C(O)c1cc(O)c2c(I)cc(Cl)cc2n1", "values": [{"measurement": "Kb", "setting": "Rattus norvegicus", "result": 410, "unit": "nM"}, {"measurement": "IC50", "setting": "Glutamate NMDA receptor", "result": 14, "unit": "nM"}]}, {"smiles": "CCc1cc(Cl)cc2nc(O)c(-c3ccccc3)c(O)c12", "values": [{"measurement": "IC50", "setting": "Glutamate NMDA receptor", "result": 6.9, "unit": "nM"}]}, {"smiles": "O=C(c1ccccc1)c1c(O)nc2cc(Cl)ccc2c1O", "values": [{"measurement": "IC50", "setting": "Glutamate NMDA receptor", "result": 3200, "unit": "nM"}]}, {"smiles": "O=C(O)c1cc(O)c2ccc(Cl)cc2n1", "note": "[7-CHLOROKYNURENIC ACID]", "values": [{"measurement": "Kb", "setting": "Rattus norvegicus", "result": 7000, "unit": "nM"}]}, {"smiles": "COC(=O)c1c(O)c2ccc(Cl)cc2[nH]c1=O", "values": [{"measurement": "IC50", "setting": "Glutamate NMDA receptor", "result": 6500, "unit": "nM"}]}, {"smiles": "Oc1nc2cc(Cl)ccc2c(O)c1C1CCCCC1", "values": [{"measurement": "IC50", "setting": "Glutamate NMDA receptor", "result": "~100000", "unit": "nM"}]}, {"smiles": "O=c1cc(O)c2ccc(Cl)cc2[nH]1", "values": [{"measurement": "IC50", "setting": "Glutamate NMDA receptor", "result": "> 300000", "unit": "nM"}]}, {"smiles": "Oc1nc2cc(Cl)cc(Cl)c2c(O)c1-c1ccccc1", "values": [{"measurement": "IC50", "setting": "Glutamate NMDA receptor", "result": 97, "unit": "nM"}]}, {"smiles": "O=C1Nc2cc(Cl)ccc2CC1[N+](=O)[O-]", "note": "(stereo not drawn)", "values": [{"measurement": "Kb", "setting": "Rattus norvegicus", "result": 6700, "unit": "nM"}, {"measurement": "IC50", "setting": "Glutamate NMDA receptor", "result": 410, "unit": "nM"}]}]}
